Data from article PMC8573827, “Zinc protoporphyrin binding to telomerase complexes and inhibition of telomerase activity” (Pharmacology Research & Perspectives, 2021).
Like-named read-outs stand apart in the source and are kept apart here.

Columns and labels:
[1] = system: TERT, β-catenin, and cyclin D1 expression; test: Western blot of proliferative proteins in Huh7 cells; type: cell-based, human; conditions: Huh7, 48 h
Description: For SDS ‐PAGE, cellular lysates, and protein preparations such as IP were dissolved in Laemmli buffer, boiled for 1 min and separated on denaturing SDS gels as described.[28] After electrophoretic transfer of separated proteins to nitrocellulose sheets, western blot immunoassays employed enhanced chemiluminescence for signal detection (ECL^TM Prime, Amersham).[28]

[2] = molecular target: T1, telomerase (Homo sapiens, UniProt O14746); test: TRAP (TRAPeze) telomerase activity assay in Huh7 cellular lysates/enzymatic extracts; type: biochemical; parameters: Enzymatic extracts were prepared from semi‐confluent phase Huh7 cells and aliquots were assayed in triplicate using TRAP assay; endogenous in cells; host or cells: Huh7
Description: (§1) Telomerase reverse transcriptase (TERT) enzymatic activity was determined using Telomeric Repeat Amplification Protocol (TRAP) with Real‐time quantification as described previously,[25] or measured directly using α‐^32P‐dGTP incorporation as described[26] with modifications as below.
(§2) For TRAP assay, a Quantitative Telomerase Detection Kit (US Biomax, Inc) was used to assay cellular lysates or TERT immunoprecipitates (IP) according to the manufacturer's directions. Relative telomerase activity was derived from a standard curve of reference samples and data were analyzed using relative fluorescence units as compared to controls. In some cases, telomerase reaction products were visualized and quantified with TRAPeze system (EMD/Millipore). After separation of the DNA products using 10% non‐denaturing PAGE and SYBR fluorescence labeling [1x SYBR safe DNA gel stain (Invitrogen)], gel bands were imaged with iBright 1500 (Invitrogen). The intensity of the sample's TRAP ladder and internal control was first measured using GelAnalyzer [GelAnalyzer 19.1 (www.gelanalyzer.com )] as recommended. Then, the relative telomerase activity was determined by the ratio of the intensity of the sample's TRAP ladder (telomerase products, TP) to that of the internal control (IC) band.
(§3) The EC50 was the extracellular concentration of MPP inhibitor calculated to result in 50% reduction of cellular telomerase activity after incubation in whole cells. Similarly, IC50 was the concentration of MPP inhibitor necessary to inhibit 50% of telomerase enzyme activity in vitro in cellular lysates. Both were calculated using GraphPad as directed and verified graphically on plots of enzyme activity vs inhibitor concentration.
Target sequence in this assay (O14746 whole entry): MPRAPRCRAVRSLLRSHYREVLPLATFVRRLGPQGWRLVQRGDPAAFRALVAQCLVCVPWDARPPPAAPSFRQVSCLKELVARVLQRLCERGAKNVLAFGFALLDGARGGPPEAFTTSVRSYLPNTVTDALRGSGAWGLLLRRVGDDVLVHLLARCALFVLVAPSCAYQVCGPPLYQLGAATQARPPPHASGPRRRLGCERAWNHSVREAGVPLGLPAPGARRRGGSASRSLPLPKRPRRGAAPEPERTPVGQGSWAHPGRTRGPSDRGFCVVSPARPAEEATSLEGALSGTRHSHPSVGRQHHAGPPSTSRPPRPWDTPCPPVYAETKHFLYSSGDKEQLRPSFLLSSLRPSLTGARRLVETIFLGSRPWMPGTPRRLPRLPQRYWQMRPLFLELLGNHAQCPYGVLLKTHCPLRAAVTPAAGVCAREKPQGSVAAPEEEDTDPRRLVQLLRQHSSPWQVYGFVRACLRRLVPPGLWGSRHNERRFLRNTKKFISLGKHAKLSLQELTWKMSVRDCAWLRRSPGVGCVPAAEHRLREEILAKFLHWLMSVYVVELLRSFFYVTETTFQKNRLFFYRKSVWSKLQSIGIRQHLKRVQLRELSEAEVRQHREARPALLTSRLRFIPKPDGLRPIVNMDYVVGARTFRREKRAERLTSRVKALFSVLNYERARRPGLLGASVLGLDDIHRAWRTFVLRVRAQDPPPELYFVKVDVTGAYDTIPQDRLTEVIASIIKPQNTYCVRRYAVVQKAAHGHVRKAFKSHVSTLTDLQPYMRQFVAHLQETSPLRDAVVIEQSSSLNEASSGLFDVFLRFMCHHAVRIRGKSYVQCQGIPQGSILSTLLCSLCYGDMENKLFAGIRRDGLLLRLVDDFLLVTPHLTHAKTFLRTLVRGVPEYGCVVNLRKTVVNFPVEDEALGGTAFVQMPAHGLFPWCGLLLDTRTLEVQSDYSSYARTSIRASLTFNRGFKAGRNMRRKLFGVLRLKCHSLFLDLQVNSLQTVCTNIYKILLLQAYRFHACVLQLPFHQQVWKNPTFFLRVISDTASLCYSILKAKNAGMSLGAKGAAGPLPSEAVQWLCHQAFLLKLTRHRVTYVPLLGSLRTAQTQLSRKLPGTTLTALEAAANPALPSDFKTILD
Target sequence in this assay (O60832 whole entry partner): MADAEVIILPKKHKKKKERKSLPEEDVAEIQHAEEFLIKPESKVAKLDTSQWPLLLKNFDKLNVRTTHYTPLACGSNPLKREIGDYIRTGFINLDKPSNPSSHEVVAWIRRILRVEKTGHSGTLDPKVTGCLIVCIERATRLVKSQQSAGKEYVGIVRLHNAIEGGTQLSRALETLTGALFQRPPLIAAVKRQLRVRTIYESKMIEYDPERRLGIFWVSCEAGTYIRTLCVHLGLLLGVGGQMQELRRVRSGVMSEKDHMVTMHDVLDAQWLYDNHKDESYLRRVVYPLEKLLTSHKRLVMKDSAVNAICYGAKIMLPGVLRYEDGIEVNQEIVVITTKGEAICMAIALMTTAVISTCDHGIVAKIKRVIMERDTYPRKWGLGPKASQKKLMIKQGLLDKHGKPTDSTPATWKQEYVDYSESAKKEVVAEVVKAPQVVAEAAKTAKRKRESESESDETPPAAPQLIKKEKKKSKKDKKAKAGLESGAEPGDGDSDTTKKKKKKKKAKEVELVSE
Target sequence in this assay (Q9NPE3 whole entry partner): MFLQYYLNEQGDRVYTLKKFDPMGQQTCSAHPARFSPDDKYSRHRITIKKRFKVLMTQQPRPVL
Target sequence in this assay (Q9NX24 whole entry partner): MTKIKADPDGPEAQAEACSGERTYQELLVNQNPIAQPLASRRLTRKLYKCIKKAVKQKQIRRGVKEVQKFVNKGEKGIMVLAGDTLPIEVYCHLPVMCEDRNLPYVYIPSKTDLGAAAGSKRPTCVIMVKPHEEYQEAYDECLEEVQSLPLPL
Target sequence in this assay (Q9NY12 whole entry partner): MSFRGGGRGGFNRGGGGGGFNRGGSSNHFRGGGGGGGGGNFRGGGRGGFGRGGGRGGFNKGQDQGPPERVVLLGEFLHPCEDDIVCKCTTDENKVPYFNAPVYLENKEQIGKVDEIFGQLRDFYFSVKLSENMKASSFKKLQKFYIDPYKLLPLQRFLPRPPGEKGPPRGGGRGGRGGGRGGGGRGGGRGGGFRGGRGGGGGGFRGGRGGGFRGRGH
Target sequence in this assay (Q9BUR4 whole entry partner): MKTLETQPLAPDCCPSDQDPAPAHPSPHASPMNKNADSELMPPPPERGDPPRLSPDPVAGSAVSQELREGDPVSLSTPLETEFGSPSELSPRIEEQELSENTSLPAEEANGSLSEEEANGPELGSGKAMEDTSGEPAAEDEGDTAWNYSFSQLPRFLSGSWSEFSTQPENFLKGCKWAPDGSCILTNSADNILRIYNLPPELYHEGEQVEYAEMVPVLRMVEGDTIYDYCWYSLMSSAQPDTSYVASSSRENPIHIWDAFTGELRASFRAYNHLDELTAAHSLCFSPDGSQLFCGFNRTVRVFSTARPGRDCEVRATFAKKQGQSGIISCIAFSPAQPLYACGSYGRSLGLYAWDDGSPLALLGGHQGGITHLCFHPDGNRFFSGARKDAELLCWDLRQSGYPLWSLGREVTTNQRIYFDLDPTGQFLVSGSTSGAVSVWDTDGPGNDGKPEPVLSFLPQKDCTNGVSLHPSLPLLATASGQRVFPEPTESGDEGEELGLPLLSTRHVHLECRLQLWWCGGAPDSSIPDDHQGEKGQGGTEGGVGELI

[3] = molecular target: T2, Taq DNA polymerase (Thermus aquaticus, UniProt P19821); test: Taq polymerase inhibition test, MPP added after the telomerase extension step of TRAP; type: biochemical
T2 construct: purchased Perkin‐Elmer Cetus, Norwalk, CT
T2 sequence (P19821 whole entry): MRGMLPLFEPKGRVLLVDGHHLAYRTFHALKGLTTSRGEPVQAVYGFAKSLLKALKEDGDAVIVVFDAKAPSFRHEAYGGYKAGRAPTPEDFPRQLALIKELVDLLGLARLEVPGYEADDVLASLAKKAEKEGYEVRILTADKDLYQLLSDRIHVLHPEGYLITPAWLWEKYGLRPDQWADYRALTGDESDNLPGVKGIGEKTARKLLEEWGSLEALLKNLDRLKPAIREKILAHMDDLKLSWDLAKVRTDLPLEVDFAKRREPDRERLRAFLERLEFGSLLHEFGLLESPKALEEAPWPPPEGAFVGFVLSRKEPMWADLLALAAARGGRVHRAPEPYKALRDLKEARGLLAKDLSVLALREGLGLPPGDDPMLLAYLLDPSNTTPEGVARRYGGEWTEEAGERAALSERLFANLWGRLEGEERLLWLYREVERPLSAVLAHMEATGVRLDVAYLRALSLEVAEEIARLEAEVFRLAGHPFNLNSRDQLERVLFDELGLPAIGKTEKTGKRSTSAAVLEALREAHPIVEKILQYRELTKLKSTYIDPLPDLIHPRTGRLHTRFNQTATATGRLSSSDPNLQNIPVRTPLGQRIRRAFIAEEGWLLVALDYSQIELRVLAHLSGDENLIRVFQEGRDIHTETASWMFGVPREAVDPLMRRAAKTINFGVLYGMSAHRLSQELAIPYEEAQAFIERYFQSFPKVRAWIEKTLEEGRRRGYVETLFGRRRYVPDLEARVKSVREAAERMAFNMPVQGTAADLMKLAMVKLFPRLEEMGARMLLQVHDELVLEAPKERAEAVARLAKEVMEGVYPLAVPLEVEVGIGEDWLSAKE
Description: as §2
Because of concerns that some quadruplex ligands inhibit Taq DNA polymerase in addition to telomerase, we assayed MPP inhibition at both steps of the TRAP procedure with a strategy similar to that of others.[36] Using equivalent extracts but separate assays, MPP was either included in the telomerase RT extension step or the extension step was conducted without MPP and then MPP added only for the amplification steps with Taq DNA polymerase. To avoid further potential errors introduced by Real‐time quantification, TRAP products were labeled with SYBR green, visualized on denaturing gels, and each lane was quantified by density measurements as described in the Methods. The latter step also ruled out the possibility that decreases in activity were artifactual due to fluorescence signal quenching by some MPPs.[37] […] All three MPPs had minimal effects on Taq polymerase […] and the slight inhibition of Taq polymerase seen for ZnPP was not directly concentration‐dependent.
Enzymatic extracts were prepared from semi-confluent Huh7 cells and aliquots were assayed in triplicate using TRAP assay. CoPP was added to RT-PCR reactions either before or after the RT telomere elongation step to test whether it inhibited Taq polymerase. Visualization of amplified telomeric products was on 12% denaturing gels using SYBR fluorescence labelling (upper panels). Quantification was with densitometry as described in Methods and plot shown (lower panel). Plotted points represent the mean +/- SD with n =3. (IC)= internal Taq polymerase control.

[4] = molecular target: T3, telomerase activity in Huh7 cells (Homo sapiens, UniProt O14746); test: Telomerase activity by TRAP after incubation of intact Huh7 cells with MPP; type: cell-based
T3 construct: Enzymatic extracts were prepared from semi‐confluent phase Huh7 cells and aliquots were assayed in triplicate using TRAP assay; endogenous in cells; host or cells: Huh7
T3 sequence (O14746 whole entry): as the sequence (O14746 whole entry) above
T3 sequence (O60832 whole entry partner): as the sequence (O60832 whole entry partner) above
T3 sequence (Q9NPE3 whole entry partner): as the sequence (Q9NPE3 whole entry partner) above
T3 sequence (Q9NX24 whole entry partner): as the sequence (Q9NX24 whole entry partner) above
T3 sequence (Q9NY12 whole entry partner): as the sequence (Q9NY12 whole entry partner) above
T3 sequence (Q9BUR4 whole entry partner): as the sequence (Q9BUR4 whole entry partner) above
Description: as §1, §2, §3

[5] = molecular target: T4, telomerase activity in Hek293 cells (Homo sapiens, UniProt O14746); test: Telomerase activity by TRAP after incubation of intact Hek293 cells with MPP; type: cell-based
T4 construct: Log phase Huh7, Hek293 and Huh5.15 HCV replicon cells; endogenous in cells; host or cells: Hek293 (wild type)
T4 sequence (O14746 whole entry): as the sequence (O14746 whole entry) above
T4 sequence (O60832 whole entry partner): as the sequence (O60832 whole entry partner) above
T4 sequence (Q9NPE3 whole entry partner): as the sequence (Q9NPE3 whole entry partner) above
T4 sequence (Q9NX24 whole entry partner): as the sequence (Q9NX24 whole entry partner) above
T4 sequence (Q9NY12 whole entry partner): as the sequence (Q9NY12 whole entry partner) above
T4 sequence (Q9BUR4 whole entry partner): as the sequence (Q9BUR4 whole entry partner) above
Description: as §1, §2, §3

[6] = molecular target: T1, telomerase; test: Direct α-32P-dGTP telomerase extension assay, IP eluates of HEK-293T cells overexpressing TERT, TERC and dyskerin; type: biochemical; parameters: purchased Abbexa Ltd (UK) Abx069991; host or cells: HEK-293T cells overexpressing TERT, TERC and dyskerin; conditions: Table 2b; mean of 2–4 experiments
Description: For direct telomerase activity assay, a modified procedure of Tomlinson et al[26] was used. Briefly, HEK‐293T cell pellet from 10^7 cells overexpressing TERT, TERC, and dyskerin was obtained from Abbexa Ltd (UK. Abx069991). The whole‐cell lysate was produced using 1ml buffer A [20 mM HEPES‐KOH buffer (pH 8), 300 mM KCl, 2 mM MgCl2, 0.1% v/v Triton X‐100, 10% v/v glycerol]. Immunoprecipitation of telomerase was performed with anti‐hTERT polyclonal sheep antibody (abx120550, Abbexa, U.K.). The telomerase was finally eluted with hTERT peptide (abx069990, Abbexa, U.K.). 10µl of eluates were mixed with different concentrations of MPP and incubated on ice for 2 h. Then the pellet‐MPP complex was added to the extension reaction mixture composed of 1x telomerase buffer, 300 mM KCl, 1 µM Bio‐L‐18GGG, 1 mM dATP, 1 mM dTTP, 10 µM dGTP, 20 µCi α‐^32P‐dGTP, 10 mM DTT, 5’ biotinylated DNA substrate (5’‐CTAGACCTGTCATCA(TTAGGG)3‐3’) and 10% glycerol. The reaction was conducted at 37 °C for 2 h. The purification of telomerase extension products employed Dynabeads M‐280 streptavidin. Five microliters of purified products were loaded on 6% sequencing gel (TBE‐UREA denaturing gel) with Model S2 Sequencing Gel Electrophoresis Apparatus (LabRepCo, Horsham, PA). […] This screen was then scanned using a STORM phosphorimager (Molecular Dynamics), and bands were quantified using GelAnalyzer as described above. […]
Target sequence in this assay (O14746 whole entry): as the sequence (O14746 whole entry) above
Target sequence in this assay (O60832 whole entry partner): as the sequence (O60832 whole entry partner) above
Target sequence in this assay (Q9NPE3 whole entry partner): as the sequence (Q9NPE3 whole entry partner) above
Target sequence in this assay (Q9NX24 whole entry partner): as the sequence (Q9NX24 whole entry partner) above
Target sequence in this assay (Q9NY12 whole entry partner): as the sequence (Q9NY12 whole entry partner) above

[7] = system: high molecular weight complexes containing telomerase; test: Fluorescent labelling of cellular lysate complexes on non-denaturing 0.8% agarose gels; type: binding, human; conditions: Huh7 lysates, fluorescence visualization
Description: 0.8% Agarose gels were run in Tris‐Borate‐EDTA buffer using standard slab gels as described for high molecular weight complexes.[27] Cell lysates were produced by lysing Hek293 and Huh7 cells in NP40 buffer (25 mM HEPES‐KOH, 150 mM KCl, 1.5mM MgCl2, 10% glycerol, 0.5% NP40, 5 mM 2ME, pH 7.5 supplemented with protease inhibitors) for 30 min on ice. Extracts were clarified by centrifugation for 16 000 g for 10 min. The protein concentration was determined by Bradford assay. The indicated amounts of proteins were treated with different amounts of ZnPP for 2 h on ice, and then separated on 0.8% Agarose gels prepared with 0.5xTris‐Borate‐EDTA (TBE) buffer. The gels were run at 100 V for 2 h at 4 °C in 0.5x TBE buffer. […] No antibody and normal rabbit IgG (sc‐2027, Santa Cruz Biotechnology) were included as controls. The IP products were treated with ZnPP and electrophoresed as above. Free ZnPP and ZnPP bound to large complexes were visualized using a wide‐wavelength UV lightbox or with red fluorescence using excitation (EX) 608–632 nm and emission (EM) 675–720 nm. Thyroglobulin (670 kD), a heavy MW marker, was run in parallel lanes and visualized with Coomassie Blue staining or fluorescence to size the complexes. In some cases, cell lysates or IP were incubated with RNase A (Life Technologies, NY); or DNase 1 (Qiagen, CA) 100 µg/ml for 1 h at 4 °C prior to electrophoresis.

[8] = system: Huh7 cells; test: MTT cell proliferation/viability assay, Huh7; type: cell-based, human; conditions: Huh7 vs U2OS, 72 h
Description: MPPs were tested for effects on cell proliferation and viability using MTT (3‐(4,5‐dimethylthiazol‐2‐yl)‐2,5‐diphenyltetrazolium bromide) dye conversion assay (Cell Titer 96, Promega) as we described[22] with some modifications. Cells were plated into 96 well plates and allowed to attach overnight. MPPs were added to the cultures and then incubated for the times indicated. At assay time, MTT reagent was added and absorbance measured at 570 nm. Controls included buffer blanks containing MPP because of background absorbances reported for MPPs by us[22] and others.[23] The formula used for determination of viable cells relative to controls was: %viablecells=(abssample‐absblank)/(absconrtrol‐absblank)×100

[9] = Table 2a, mean of 2–4 experiments, 6 inhibitor concentrations 0–20 µM, read-out: IC50, cellular lysates [Trapeze]
[10] = individual experiment, Figure 3B-D, gel densitometry, read-out: IC50 of telomerase activity, TRAP in Huh7 extracts
[11] = TRAP, MPP added for the amplification steps only
[12] = Figure 3A upper panel, 48 h, read-out: EC50 of telomerase activity in cultured Huh7 cells
[13] = Table 2c, mean of 2–4 experiments, 48 h incubation, read-out: EC50, intact Huh7 cells [TRAP]
[14] = Figure 3A middle panel, 48 h, read-out: EC50 of telomerase activity in cultured Hek293 cells
[15] = Table 2d, mean of 2–4 experiments, 48 h incubation, read-out: EC50, intact Hek293 cells [TRAP]

Structure (SMILES): C=CC1=C(C)c2cc3[n-]c(cc4[n-]c(cc5nc(cc1n2)C(C)=C5C=C)c(C)c4CCC(=O)O)c(CCC(=O)O)c3C.[Fe+2] [FePP, iron protoporphyrin (heme)]
- Effect on expression of TERT, β-catenin and cyclin D1 (western blot) [1]: failed to significantly alter
- IC50 [2, 9]: > 20 µM
- IC50 [2, 10]: > 10 µM
- Effect on Taq polymerase [3, 11]: minimal inhibition
- EC50 [4, 12]: > 10 µM
- EC50 [4, 13]: > 20 µM
- EC50 [5, 14]: > 10 µM
- EC50 [5, 15]: > 20 µM
- IC50 [6]: 18.3 µM

Structure (SMILES): C=CC1=C(C)c2cc3[n-]c(cc4nc(cc5[n-]c(cc1n2)c(C)c5CCC(=O)[O-])C(CCC(=O)[O-])=C4C)c(C)c3C=C.[Co+2].[H+].[H+] [CoPP, cobalt protoporphyrin]
- Effect on expression of TERT, β-catenin and cyclin D1 (western blot) [1]: failed to significantly alter
- Effect on Taq polymerase [3, 11]: clearly inhibited Taq polymerase
- Effect on Taq polymerase ([3]; concentrations of 5-10 µM, Figure S2): potent antagonist

Structure (SMILES): C=Cc1c2[n-]c(c1C)/C=c1\[n-]/c(c(C)c1C=C)=C\c1[n-]c(c(CCC(=O)O)c1C)/C=c1\[n-]c(c(C)c1CCC(=O)O)=C2.[Sn+4] [SnPP, tin protoporphyrin]
- Labelling/binding of cellular complexes on agarose gels [7]: did not label a discernable cellular complex
- Effect on expression of TERT, β-catenin and cyclin D1 (western blot) [1]: failed to significantly alter
- IC50 [2, 9]: 12 µM
- IC50 [2, 10]: > 10 µM
- Effect on Taq polymerase [3, 11]: minimal inhibition
- EC50 [4, 12]: > 10 µM
- EC50 [4, 13]: 10.8 µM
- EC50 [5, 14]: > 10 µM
- EC50 [5, 15]: > 20 µM
- IC50 [6]: > 20 µM

Structure (SMILES): C/C(=C\C(=O)Nc1ccccc1C(=O)O)c1ccc2ccccc2c1 [BIBR, reference compound]
- Effect on proliferation, telomerase-expressing vs telomerase negative line [8]: greater propensity to decrease proliferation
